The nature of test [1]: NIH-3T3 fibroblast cytotoxicity, dose response, cytotoxicity control, cell-based, fluorescence, Alamar Blue, secondary assay (AID 2327).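 Further: NIH-3T3 mouse fibroblasts cultured with fluconazole at 8 µg/mL.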 The format is functional. A general note: The colour change of resazurin is a common sign of viable cells or microbes.
Test [2] is described as follows: fluconazole-exposed Candida albicans growth modulators – fluorescence, retest, confirmation (AID 2467). Format: functional, cell-based.
Test [3] deals with T1, Serine/threonine-protein phosphatase (Candida dubliniensis (strain CD36 / CBS 7987 / NCPF 3949 / NRRLY-17841) (Yeast), UniProt B9W6M3).
T1 sequence (B9W6M3 whole entry): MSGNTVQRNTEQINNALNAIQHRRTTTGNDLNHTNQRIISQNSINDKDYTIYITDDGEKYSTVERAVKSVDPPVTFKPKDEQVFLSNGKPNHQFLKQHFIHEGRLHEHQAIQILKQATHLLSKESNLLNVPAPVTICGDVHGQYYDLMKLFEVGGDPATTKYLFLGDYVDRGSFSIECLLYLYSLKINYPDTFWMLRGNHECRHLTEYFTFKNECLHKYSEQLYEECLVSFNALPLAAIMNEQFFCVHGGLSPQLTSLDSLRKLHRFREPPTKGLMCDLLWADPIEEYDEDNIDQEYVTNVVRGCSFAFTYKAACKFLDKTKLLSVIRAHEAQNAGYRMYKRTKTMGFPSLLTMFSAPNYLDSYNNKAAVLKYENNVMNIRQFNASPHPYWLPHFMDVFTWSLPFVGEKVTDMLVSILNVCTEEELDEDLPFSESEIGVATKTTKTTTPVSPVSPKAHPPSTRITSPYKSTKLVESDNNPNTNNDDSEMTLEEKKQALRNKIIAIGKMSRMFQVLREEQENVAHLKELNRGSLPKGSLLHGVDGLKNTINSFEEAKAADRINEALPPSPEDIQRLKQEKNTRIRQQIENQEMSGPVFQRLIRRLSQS
As to the kind of experiment: blockers of CaCl2-induced CDRE-lacZ signaling – S. cerevisiae, luminescence, secondary, dose response (AID 2388).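 Further: yeast reporter cells carrying a calcineurin-responsive lacZ construct stimulated with calcium chloride; luminescent beta-galactosidase reporter signal in whole cells rather than isolated phosphatase activity; potency for inhibition where a drop in reporter signal means calcineurin blockade.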 Format: functional, cell-based.

Test [4] addresses ATP-dependent molecular chaperone HSP82 (Candida albicans (strain WO-1) (Yeast), UniProt C4YTQ8). As to the kind of experiment: steroid-induced GRE reporter decrease in yeast – S. cerevisiae, luminescence, Hsp90 inhibitor project, dose response (AID 2400).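 Further: beta-galactosidase luminescence from glucocorticoid response element reporter as proxy for Hsp90 function; inhibitor potency where signal loss means Hsp90 inhibition.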 Format: functional, cell-based.
In test [5] the target is T2, Streptokinase A (Streptococcus pyogenes serotype M1, UniProt P10520).
T2 sequence (P10520 whole entry): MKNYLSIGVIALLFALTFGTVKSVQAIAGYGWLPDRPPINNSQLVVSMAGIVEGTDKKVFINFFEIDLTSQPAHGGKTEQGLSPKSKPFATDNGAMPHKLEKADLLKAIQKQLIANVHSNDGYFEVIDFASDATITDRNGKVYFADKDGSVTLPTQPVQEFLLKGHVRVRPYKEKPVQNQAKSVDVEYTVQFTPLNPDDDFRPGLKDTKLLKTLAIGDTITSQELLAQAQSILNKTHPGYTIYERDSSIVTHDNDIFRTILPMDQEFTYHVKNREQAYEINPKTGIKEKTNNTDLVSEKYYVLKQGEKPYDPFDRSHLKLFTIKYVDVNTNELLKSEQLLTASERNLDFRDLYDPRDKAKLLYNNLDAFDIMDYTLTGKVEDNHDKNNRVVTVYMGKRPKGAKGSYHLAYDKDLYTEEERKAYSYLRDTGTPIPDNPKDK
As to the kind of experiment: viability-normalized secreted streptokinase activity reduction – plasminogen activation absorbance, OD405, dose response (AID 1914).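 Further: secreted streptokinase activity via plasminogen activation per viability signal from cell pellet.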 The format is functional, Streptococcus pyogenes M1 GAS.

In test [6] the test system is Streptococcus sp. 'group A'. As to the kind of experiment: Streptococcus pyogenes SK(-)GAS viability under kanamycin – luminescence, BacTiterGlo, confirmation, counter-screen for streptokinase expression inhibitor project, dose response (AID 1900). The format is functional, organism-based. (In general: Counterscreens check selectivity or assay interference.)
Test [7] in a line: reduction of Shn3 3'UTR-driven luciferase in osteoblasts – cell-based, Clone20 osteoblasts, firefly luciferase, cherry-picked, dose response (AID 624132).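 Further: firefly luciferase luminescence from reporter carrying the Shn3 3'UTR in osteoblasts.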 Format: functional.
Test [8] deals with Beta-galactosidase (Escherichia coli, UniProt Q8VNN2). As to the kind of experiment: PubChem AID 485352. Format: functional.
Beta-galactosidase, sequence (Q8VNN2 whole entry): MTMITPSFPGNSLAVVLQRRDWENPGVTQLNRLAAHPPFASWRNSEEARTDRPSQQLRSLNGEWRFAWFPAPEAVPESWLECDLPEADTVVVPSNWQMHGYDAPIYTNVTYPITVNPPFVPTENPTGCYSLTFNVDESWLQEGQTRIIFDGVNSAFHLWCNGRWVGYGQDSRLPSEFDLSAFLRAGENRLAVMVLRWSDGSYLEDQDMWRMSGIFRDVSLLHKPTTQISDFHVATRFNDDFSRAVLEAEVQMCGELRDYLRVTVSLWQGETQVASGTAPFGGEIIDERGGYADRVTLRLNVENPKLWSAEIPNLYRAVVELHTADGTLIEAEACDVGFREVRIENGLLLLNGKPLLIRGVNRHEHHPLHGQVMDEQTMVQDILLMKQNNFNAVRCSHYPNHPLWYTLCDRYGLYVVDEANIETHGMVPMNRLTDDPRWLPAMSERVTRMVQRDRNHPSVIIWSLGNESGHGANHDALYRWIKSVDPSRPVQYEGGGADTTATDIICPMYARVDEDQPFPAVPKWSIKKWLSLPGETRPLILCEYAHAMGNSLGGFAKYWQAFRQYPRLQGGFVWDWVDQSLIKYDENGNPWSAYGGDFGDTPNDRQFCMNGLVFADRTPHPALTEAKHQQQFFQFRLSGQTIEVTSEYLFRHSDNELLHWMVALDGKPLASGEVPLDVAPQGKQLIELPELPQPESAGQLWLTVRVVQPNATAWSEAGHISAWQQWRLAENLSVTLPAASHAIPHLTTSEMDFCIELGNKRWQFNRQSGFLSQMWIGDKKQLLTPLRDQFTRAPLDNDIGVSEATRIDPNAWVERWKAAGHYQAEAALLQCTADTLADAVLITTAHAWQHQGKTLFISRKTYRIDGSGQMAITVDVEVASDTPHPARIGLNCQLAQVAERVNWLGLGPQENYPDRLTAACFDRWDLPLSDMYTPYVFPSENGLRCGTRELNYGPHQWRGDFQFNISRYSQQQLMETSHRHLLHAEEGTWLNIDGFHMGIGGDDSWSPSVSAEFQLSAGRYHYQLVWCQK
For test [9], the system named is H9c2. As to the kind of experiment: cells. The format is functional, cell-based. Particulars: Rattus norvegicus, H9c2, Myocardium.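 Further: confirmatory concentration-response retest of ultra-high-throughput screening hits for modulation of myocardial damage; cell death induced by hydrogen peroxide oxidative stress; compound pretreatment for 60 min then peroxide exposure for 2 h; potency is for protecting the cells against peroxide damage rather than for killing them.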
In test [10] the target is T3, Heat shock factor protein 1 (Mus musculus, UniProt P38532).
T3 sequence (P38532 whole entry): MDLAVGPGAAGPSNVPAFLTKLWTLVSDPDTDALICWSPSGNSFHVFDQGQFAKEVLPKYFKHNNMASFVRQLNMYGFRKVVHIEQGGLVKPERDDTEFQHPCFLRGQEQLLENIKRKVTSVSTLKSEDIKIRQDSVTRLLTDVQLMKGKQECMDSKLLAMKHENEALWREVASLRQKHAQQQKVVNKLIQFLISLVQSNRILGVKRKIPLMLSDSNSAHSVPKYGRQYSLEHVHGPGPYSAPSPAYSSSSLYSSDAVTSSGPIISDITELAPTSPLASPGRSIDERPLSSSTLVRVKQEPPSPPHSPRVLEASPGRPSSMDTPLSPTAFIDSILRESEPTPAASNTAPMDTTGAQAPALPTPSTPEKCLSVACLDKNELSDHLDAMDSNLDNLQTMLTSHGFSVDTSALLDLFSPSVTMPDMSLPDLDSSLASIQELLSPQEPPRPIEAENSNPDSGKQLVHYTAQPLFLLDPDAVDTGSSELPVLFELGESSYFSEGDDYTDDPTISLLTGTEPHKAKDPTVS
As to the kind of experiment: enhancement of HSF1-driven luciferase signal – cell-based, NIH3T3, luminescence, dose retest, confirmation (AID 435004).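 Further: stress induced by proteasome inhibitor MG132 added 30 min after compound; luciferase reporter driven by HSF1 response element in NIH3T3 cells; actives raise luminescence as potentiators of the MG132 stress response.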 Format: functional.

The nature of test [11]: loss of viability in HepG2 cells – cell-based, CellTiter-Glo, cherry-picked, cytotoxicity control for Shn3 inhibitor project, dose response (AID 624134). The format is functional.
The target of test [12] is T4, Type-1 angiotensin II receptor (Homo sapiens, UniProt P30556).
T4 sequence (P30556 whole entry): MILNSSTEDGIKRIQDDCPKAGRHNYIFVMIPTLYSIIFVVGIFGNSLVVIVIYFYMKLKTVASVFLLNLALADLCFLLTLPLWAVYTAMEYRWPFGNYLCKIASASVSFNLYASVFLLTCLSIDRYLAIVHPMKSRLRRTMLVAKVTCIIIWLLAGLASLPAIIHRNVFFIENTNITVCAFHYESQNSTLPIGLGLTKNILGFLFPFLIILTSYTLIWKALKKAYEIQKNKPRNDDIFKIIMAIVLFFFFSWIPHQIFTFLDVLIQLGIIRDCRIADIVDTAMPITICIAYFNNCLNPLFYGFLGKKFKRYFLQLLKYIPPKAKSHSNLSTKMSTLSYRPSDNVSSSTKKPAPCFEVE
As to the kind of experiment: antagonism of angiotensin II type 1 receptor – cell-based, uHTS hits, selectivity assay for APJ receptor antagonist project, dose response (AID 463214).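 Further: antagonist potency against angiotensin II stimulated AT1 response.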 Format: functional.

For test [13], the system named is Streptococcus. As to the kind of experiment: GAS UMAA2166 growth inhibition – luminescence, BacTiterGlo, counter-screen for streptokinase expression inhibitor project, dose response (AID 1915).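 Further: potency for reduction of bacterial viability or growth.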 Format: functional, organism-based.
Test [14] in a line: Trypanosoma cruzi growth suppression in host cells – NIH3T3 host cells, beta-gal luminescence, confirmation (AID 2044).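 Further: intracellular parasites grown in NIH/3T3 mouse fibroblasts as host cells; luminescent beta-galactosidase reporter signal from transgenic T. cruzi replicating inside host cells; inhibitors lower the luminescence signal.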 The format is functional, cell-based.
A short description of test [15]: NIH3T3 cell viability loss – ATP luminescence, mouse fibroblasts, counter-screen, dose response (AID 2010).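 Further: cells exposed to compound for about 90 hours before reading.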 The format is functional, cell-based.
Test [16] has as its target T5, Hexokinase-1 (Homo sapiens, UniProt P19367).
T5 sequence (P19367 whole entry): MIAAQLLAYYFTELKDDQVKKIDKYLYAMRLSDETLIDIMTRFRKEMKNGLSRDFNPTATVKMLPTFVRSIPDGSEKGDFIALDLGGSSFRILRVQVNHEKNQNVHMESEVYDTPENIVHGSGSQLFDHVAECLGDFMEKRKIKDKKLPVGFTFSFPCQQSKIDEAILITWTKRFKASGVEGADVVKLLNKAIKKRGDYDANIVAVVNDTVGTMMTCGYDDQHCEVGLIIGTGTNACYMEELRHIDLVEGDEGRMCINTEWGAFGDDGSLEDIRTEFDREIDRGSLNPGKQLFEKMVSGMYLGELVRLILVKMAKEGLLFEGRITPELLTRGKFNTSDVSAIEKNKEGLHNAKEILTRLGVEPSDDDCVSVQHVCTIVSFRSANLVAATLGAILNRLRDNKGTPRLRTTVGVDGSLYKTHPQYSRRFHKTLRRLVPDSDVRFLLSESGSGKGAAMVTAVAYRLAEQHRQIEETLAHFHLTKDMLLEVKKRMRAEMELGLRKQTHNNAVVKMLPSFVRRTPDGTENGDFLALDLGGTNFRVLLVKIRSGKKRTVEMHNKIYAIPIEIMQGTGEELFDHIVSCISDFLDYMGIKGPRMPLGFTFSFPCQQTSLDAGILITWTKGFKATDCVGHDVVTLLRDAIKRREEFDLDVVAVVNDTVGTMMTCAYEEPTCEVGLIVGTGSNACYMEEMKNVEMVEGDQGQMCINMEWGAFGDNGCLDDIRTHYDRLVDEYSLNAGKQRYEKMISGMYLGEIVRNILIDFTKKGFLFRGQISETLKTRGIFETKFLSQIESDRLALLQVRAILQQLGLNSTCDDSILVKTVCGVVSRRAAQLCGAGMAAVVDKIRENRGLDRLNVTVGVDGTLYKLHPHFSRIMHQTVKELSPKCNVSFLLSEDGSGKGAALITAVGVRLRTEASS
As to the kind of experiment: SAR analysis of small molecule inhibitors of hexokinase domain containing I (HKDC1) in the hexokinase 1 selectivity assay. [Related pubchem assays (depositor defined):AID493160, AID493190]. The format is functional.

For test [17], the target named is T6, Hexokinase HKDC1 (Homo sapiens, UniProt Q2TB90).
T6 sequence (Q2TB90 whole entry): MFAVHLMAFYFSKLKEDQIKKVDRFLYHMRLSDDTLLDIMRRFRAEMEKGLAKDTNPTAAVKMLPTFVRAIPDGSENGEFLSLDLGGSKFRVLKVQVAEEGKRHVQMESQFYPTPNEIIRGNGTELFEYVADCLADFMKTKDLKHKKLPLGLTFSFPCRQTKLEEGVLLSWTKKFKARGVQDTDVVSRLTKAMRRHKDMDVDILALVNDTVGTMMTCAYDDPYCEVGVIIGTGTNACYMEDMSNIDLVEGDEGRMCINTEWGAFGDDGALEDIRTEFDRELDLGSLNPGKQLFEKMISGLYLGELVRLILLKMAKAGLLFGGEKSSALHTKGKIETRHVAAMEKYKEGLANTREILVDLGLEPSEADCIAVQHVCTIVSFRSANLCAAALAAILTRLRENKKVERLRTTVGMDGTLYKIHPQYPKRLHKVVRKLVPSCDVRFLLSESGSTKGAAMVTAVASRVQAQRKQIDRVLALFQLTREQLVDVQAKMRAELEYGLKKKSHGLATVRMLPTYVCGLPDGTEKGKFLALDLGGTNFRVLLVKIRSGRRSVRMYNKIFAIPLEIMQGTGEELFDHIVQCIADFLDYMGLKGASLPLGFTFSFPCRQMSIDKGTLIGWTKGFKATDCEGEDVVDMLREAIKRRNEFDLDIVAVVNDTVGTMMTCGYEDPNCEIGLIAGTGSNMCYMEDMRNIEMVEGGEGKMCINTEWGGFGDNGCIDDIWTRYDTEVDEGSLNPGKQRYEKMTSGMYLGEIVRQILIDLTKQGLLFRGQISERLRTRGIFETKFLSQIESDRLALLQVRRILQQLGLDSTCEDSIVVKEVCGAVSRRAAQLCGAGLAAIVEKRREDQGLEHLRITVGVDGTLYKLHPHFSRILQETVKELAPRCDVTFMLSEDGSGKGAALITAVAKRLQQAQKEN
As to the kind of experiment: SAR analysis of small molecule inhibitors of hexokinase domain containing I (HKDC1). [Related pubchem assays (depositor defined):AID493160, AID493190]. Format: functional.

Structures are written as SMILES. Calls of active or inactive are those of the source. For most assays here, no stated cut-off is given here; in the data, actives have a measured EC50 and inactives only a lower limit.

ATP-dependent molecular chaperone HSP82, sequence (C4YTQ8 whole entry): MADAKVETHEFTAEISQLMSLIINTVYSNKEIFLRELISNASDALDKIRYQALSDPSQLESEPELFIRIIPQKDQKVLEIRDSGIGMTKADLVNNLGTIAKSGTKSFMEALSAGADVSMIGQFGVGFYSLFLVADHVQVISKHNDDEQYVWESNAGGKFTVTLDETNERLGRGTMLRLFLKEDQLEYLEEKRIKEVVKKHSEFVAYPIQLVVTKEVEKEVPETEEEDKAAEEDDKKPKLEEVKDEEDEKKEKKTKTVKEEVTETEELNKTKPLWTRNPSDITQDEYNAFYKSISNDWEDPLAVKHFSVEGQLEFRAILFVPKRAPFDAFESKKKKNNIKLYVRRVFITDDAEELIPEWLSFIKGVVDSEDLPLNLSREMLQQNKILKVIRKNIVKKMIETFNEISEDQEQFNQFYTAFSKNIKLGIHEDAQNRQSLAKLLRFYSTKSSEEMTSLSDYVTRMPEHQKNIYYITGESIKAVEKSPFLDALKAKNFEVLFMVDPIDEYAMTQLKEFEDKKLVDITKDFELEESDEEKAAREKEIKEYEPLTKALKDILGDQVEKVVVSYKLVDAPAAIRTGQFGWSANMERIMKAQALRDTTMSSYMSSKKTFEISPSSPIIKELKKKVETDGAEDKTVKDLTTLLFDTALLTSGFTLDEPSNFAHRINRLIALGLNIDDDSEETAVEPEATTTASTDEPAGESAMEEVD

A word on the EC50: it is the midpoint of the concentration-response curve. As for `O=C(Cc1ccc(Cl)cc1)NNC(=S)NC(=O)c1cccs1`, the EC50 in test [1] was > 160 µM (inactive); in test [2], 1.43 µM (active); in test [3], > 180 µM (inactive); in test [4], 16.6 µM (active).

`O=C(CCS(=O)(=O)c1ccc(F)cc1)Nc1nc(-c2ccncc2)cs1`: the half-maximal effective concentration (EC50) is 18.3 µM (inconclusive) in test [1], 1.39 µM (active) in [2], > 180 µM (inactive) in test [3] and 16.5 µM (active) in test [4].

Broadly, the AC50 is the concentration giving half of the maximal activity seen. In general, IC50 refers to the concentration at which inhibition is half-maximal. Turning to `COc1ccc(NS(=O)(=O)c2ccc3ccccc3c2)c2ncccc12`, the EC50 in [5] was > 150 µM (not active); in test [6], 1.03 µM (active); in [8], > 40 µM (inactive); in test [1], 60.9 µM (active); in test [2], > 38 µM (not active); in [10], 7.48 µM (active). In addition, the EC50 in test [13] was 4.63 µM (active); in test [14], 688 nM (active); in [15] it was 5.55 µM (active). Moreover, the AC50 in [7] was 4.82 µM (active); in [11] it was 69.5 µM (active). Moreover, the IC50 was 11.5 µM (active) in test [9] and 23.1 µM (not active) in test [12].

`Cc1cc2nnc(SCC(=O)Nc3cccc(S(=O)(=O)N4CCCC4)c3)n2c2ccccc12`: the IC50 in [16] and in test [17] was > 80 µM (inactive) in each case.

For the compound `O=c1c2ccccc2nc(/C=C/c2ccccn2)n1Cc1ccccc1`, the IC50 in test [16] and in test [17] was > 80 µM (inactive) each time.

Consider `O=c1c2ccccc2nc(/C=C/c2ccccc2)n1Cc1ccccc1`, for which the IC50 in [16] and in [17] was > 80 µM (inactive) in each case.

(Values after ChEMBL document CHEMBL1201862, “PubChem BioAssay data set” (2004).)
